Values quoted from earlier work as cited in article PMC4780677 (Annual reports in medicinal chemistry, 2012).

Tested on: mGlu5 receptor
Conditions: cell lines; mGlu5 receptor ago-PAM vs pure PAM

O=C(c1ccc(C#Cc2cccc(F)c2)nc1)N1CCC(O)CC1 [VU0361747]
intrinsic agonist activity: devoid of intrinsic agonist activity

O=C(NC1CCC1)c1ccc(C#Cc2cccc(F)c2)nc1 [VU0360172]
intrinsic agonist activity: maximal intrinsic agonist activity
